Source: publication PMC12808645 (Nature Communications, 2025)

Assays:
[1] = system: Nan-Iav; assay type: cell-based, Halyomorpha halys
[2] = molecular target: NanY172A-Iav; assay type: binding, Halyomorpha halys
[3] = system: NanY172F-Iav; assay type: binding, Halyomorpha halys
[4] = system: NanY177A-Iav; assay type: binding, Halyomorpha halys
[5] = system: NanY177F-Iav; assay type: binding, Halyomorpha halys
[6] = system: NanY177A-Iav; assay: Whole-cell electrophysiology, NanY177A-Iav; assay type: cell-based, Halyomorpha halys
[7] = system: NanY172A-Iav; assay type: binding, Halyomorpha halys; remark: listed apart in the source
[8] = system: NanY172F-Iav; assay type: binding, Halyomorpha halys; remark: listed apart in the source
[9] = system: NanY177A-Iav; assay type: binding, Halyomorpha halys; remark: listed apart in the source
[10] = molecular target: NanY177F-Iav; assay type: binding, Halyomorpha halys; remark: listed apart in the source

For `[Ca+2]` [Ca^2+], which “% inhibition of inward current” value [1] is on record?
The value was ~ 50%.

And the “% inhibition of outward current” value [1]?
The value was ~ 20%.

What does the source list for `NC(=O)c1cccnc1` [NAM, nicotinamide]?
raising of Ki for NAM relative to WT [2]: two orders of magnitude; increase of Ki for NAM relative to WT [3]: ~ 10 fold; lowering of NAM binding affinity relative to WT [4]: > 100 fold; Ki ([4]; read-out: Ki NAM, competition with [3H]-AP, affinities exceeding 10 mM could not be accurately determined): > 10000 µM; weaker NAM affinity than WT [5]: ~ 10 fold; effect on whole-cell current ([1]; 1 mM NAM, ±60 mV): robustly stimulated; desensitization and reversibility of evoked currents ([1]; prolonged or repeated application, washout): non-desensitizing upon prolonged or repeated application and are reversible upon washout; EC50 ([1]; read-out: apparent EC50): ~100 µM; NAM-induced channel activity [6]: abolishes

With `C[C@]1(COC(=O)C2CC2)[C@@H]2C[C@H](O)[C@@]3(C)Oc4cc(-c5cccnc5)oc(=O)c4[C@H](O)[C@@H]3[C@@]2(C)CC[C@@H]1OC(=O)C1CC1` [[^3H]-AP] as the compound, how does the “increase in [3H]-AP Kd relative to WT” value [7] read?
The value was ~ 100 fold.

And the “difference in [3H]-AP Kd relative to WT” value [8]?
The value was 3 fold.

And the “greater [3H]-AP Kd than WT” value [9]?
Its value is ~ 200 fold.

What about the “[3H]-AP Kd compared with WT” value [10] of the same compound?
Its value is “similar”.

`N.N.N.N.N.N.N.N.N.N.N.N.N.N.[Cl-].[Cl-].[Cl-].[Cl-].[Cl-].[Cl-].[O-2].[O-2].[Ru+3].[Ru+3].[Ru+4]` [ruthenium red] was tested. Which “effect on AP-elicited current” value ([1]; pore blocker) did it give?
The value was “inhibited”.
